Experimental data: patent US12122785B2, “Substituted pyridines, pyridazines, pyrimidines, and 1,2,4-triazines as TYK2 inhibitors” (Sudo Biosciences Limited, priority 2021, dated 2024)
pIC50: −log10 of the molar value.

Assays:
Type in all cases: cell-based
[1] = test system: TYK2 pseudokinase (JH2); IL-23-stimulated HEK-Blue IL-23 cells; test: HEK-Blue IL-23 reporter assay (STAT3-inducible SEAP) for profiling TYK2 pseudokinase (JH2) inhibition; conditions: 10 ng/mL human recombinant IL-23, SEAP readout, read-out: IL23 (TYK2 inhibitory activity, IC50)
Description: (§1) Example B-1: HEK-Blue™ IL-23 and IFNα/β Reporter Assays for Profiling TYK2 Pseudokinase (JH2) Inhibition
(§2) HEK-Blue™ IL-23 and IFNα/β cells with a stably-integrated cytokine receptor and STAT3 or STAT1 express STAT-inducible secreted embryonic alkaline phosphatase (SEAP) reporter gene upon cytokine stimulation. These cells are plated in DMEM (Gibco) containing 10% heat-inactivated FBS (Gibco) and 100 U/mL PenStrep (Gibco) at 37° C. under 5% CO2 conditions for 20-22 hours. The cells are then pretreated with serially diluted test compounds for 60 min prior to stimulation with either 10 ng/mL human recombinant IL-23 (Miltenyl Biotech) or 1 ng/mL human recombinant IFNα (InvivoGen) for 22-24 hours for IL-23 or 16-18 h for IFNα. SEAP induction is measured using the QUANTI Blue™ Solution (InvivoGen) according to the manufacturer's instructions.

[2] = test system: TYK2 pseudokinase (JH2); IFNα-stimulated HEK-Blue IFNα/β cells; test: HEK-Blue IFNα/β reporter assay (STAT1-inducible SEAP) for profiling TYK2 pseudokinase (JH2) inhibition; conditions: 1 ng/mL human recombinant IFNα, SEAP readout, read-out: IFNα (TYK2 inhibitory activity, IC50)
Description: as §1, §2

[3] = test system: IL-2-stimulated HEK-Blue IL-2 reporter cells; test: HEK-Blue IL-2 reporter assay (STAT5-inducible SEAP) for determining selectivity; conditions: 4 ng/mL human recombinant IL-2, 24 hours
Description: (§3) Example B-3: HEK-Blue™ IL-2 and IFNγ Reporter Assays for Determining Selectivity
(§4) HEK-Blue™ IL-2 and IFNγ reporter cells with a stably-integrated cytokine receptor and STAT5 or STAT1 express STAT-inducible secreted embryonic alkaline phosphatase (SEAP) reporter gene upon cytokine stimulation. These cells were plated in DMEM (Gibco) containing 10% heat-inactivated FBS (Gibco) and 100 U/mL PenStrep (Gibco) at 37° C. under 5% CO2 conditions for 20-22 hours. The cells were then pretreated with serially diluted test compounds for 60 min prior to stimulation with either 4 ng/mL human recombinant IL-2 (Miltenyl Biotech) or 50 ng/mL human recombinant IFNγ (InvivoGen) for 24 hours. SEAP induction was measured using the QUANTI-Blue™ Solution (InvivoGen) according to the manufacturer's instructions.

[4] = test system: IFNγ-stimulated HEK-Blue IFNγ reporter cells; test: HEK-Blue IFNγ reporter assay (STAT1-inducible SEAP) for determining selectivity; conditions: 50 ng/mL human recombinant IFNγ, 24 hours, read-out: IFN-γ SEAP selectivity assay IC50
Description: as §3, §4

[2H]C([2H])([2H])NC(=O)c1cnc(NC(=O)C2CC2)cc1Nc1cccc2c1N(C)[C@H](C)c1cn(C)nc1-2 (single isomer, unassigned) [Compound 31]
pIC50 [1]: > 7.52
pIC50 [2]: 6.52 to 7.52

[2H]C([2H])([2H])NC(=O)c1nnc(NC(=O)C2CC2)cc1Nc1nccc2c1N(C)[C@@H](C)c1cn(C)nc1-2 (single isomer, unassigned) [Compound 69]
pIC50 [1]: 6.52 to 7.52
pIC50 [2]: 6.52 to 7.52

[2H]C([2H])([2H])NC(=O)c1nnc(NC(=O)NC)cc1Nc1nccc2c1N(C)[C@H](C)c1cn(C)nc1-2 (single isomer, unassigned) [Compound 78]
pIC50 [1]: 6.52 to 7.52
pIC50 [2]: 6.00 to 6.52

[2H]C([2H])([2H])NC(=O)c1nnc(NC(=O)NC)cc1Nc1nccc2c1N(C)[C@@H](C)c1cn(C)nc1-2 (single isomer, unassigned) [Compound 80]
pIC50 [1]: > 7.52
pIC50 [2]: > 7.52
pIC50 [3]: < 6.00
pIC50 [4]: < 6.00

CNC(=O)c1nnc(Nc2ccc(F)cn2)cc1Nc1cccc2c1OCc1cn(C3COC3)nc1-2 [Compound 3, 6-[(5-fluoropyridin-2-yl)amino]-N-methyl-4-{[2-(oxetan-3-yl)-2H,4H-chromeno[4,3-c]pyrazol-6-yl]amino}pyridazine-3-carboxamide]
pIC50 [1]: 6.52 to 7.52
pIC50 [2]: < 6.00
pIC50 [3]: 6.00 to 6.52
pIC50 [4]: 6.00 to 6.52

CNC(=O)c1nnc(NC(=O)C2CC2)cc1Nc1cccc2c1OCc1cn(C3COC3)nc1-2 [Compound 4, 6-(cyclopropanecarboxamido)-N-methyl-4-((2-(oxetan-3-yl)-2,4-dihydrochromeno[4,3-c]pyrazol-6-yl)amino)pyridazine-3-carboxamide]
pIC50 [1]: 6.52 to 7.52
pIC50 [2]: < 6.00
pIC50 [3]: 6.00 to 6.52
pIC50 [4]: < 6.00

CNC(=O)c1nnc(NC(=O)C2CC2)cc1Nc1cccc2c1OC(C)c1cn(C)nc1-2 (centres unmarked) [Compound 10, 6-(cyclopropanecarboxamido)-4-((2,4-dimethyl-2,4-dihydrochromeno[4,3-c]pyrazol-6-yl)amino)-N-methylpyridazine-3-carboxamide]
pIC50 [1]: 6.52 to 7.52
pIC50 [2]: < 6.00

CNC(=O)c1nnc(Nc2ccc(F)cn2)cc1Nc1cccc2c1OC(C)c1cn(C)nc1-2 (centres unmarked) [Compound 11, 4-((2,4-dimethyl-2,4-dihydrochromeno[4,3-c]pyrazol-6-yl)amino)-6-((5-fluoropyridin-2-yl)amino)-N-methylpyridazine-3-carboxamide]
pIC50 [1]: 6.52 to 7.52
pIC50 [2]: < 6.00

[2H]C([2H])([2H])NC(=O)c1cnc(NC(=O)C2COC2)cc1Nc1cccc2c1N(C)Cc1cn(C)nc1-2 [Compound 24, 4-((2,5-dimethyl-4,5-dihydro-2H-pyrazolo[4,3-c]quinolin-6-yl)amino)-N-(methyl-d3)-6-(oxetane-3-carboxamido)nicotinamide]
pIC50 [1]: 6.52 to 7.52
pIC50 [2]: 6.52 to 7.52

[2H]C([2H])([2H])NC(=O)c1nnc(NC(=O)NC)cc1Nc1cccc2c1N(C)C([2H])([2H])c1cn(C)nc1-2 [Compound 33, 4-((2,5-dimethyl-4,5-dihydro-2H-pyrazolo[4,3-c]quinolin-6-yl-4,4-d2)amino)-N-(methyl-d3)-6-(3-methylureido)pyridazine-3-carboxamide]
pIC50 [1]: > 7.52
pIC50 [2]: > 7.52
pIC50 [3]: < 6.00
pIC50 [4]: 6.00 to 6.52

CNC(=O)c1nnc(Nc2cc(C)nc(C)n2)cc1Nc1cccc2c1N(C)Cc1cn(C)nc1-2 [Compound 34, 4-((2,5-dimethyl-4,5-dihydro-2H-pyrazolo[4,3-c]quinolin-6-yl)amino)-6-((2,6-dimethylpyrimidin-4-yl)amino)-N-methylpyridazine-3-carboxamide]
pIC50 [1]: > 7.52
pIC50 [2]: > 7.52
pIC50 [3]: 6.52 to 7.52
pIC50 [4]: 6.52 to 7.52

[2H]C([2H])([2H])NC(=O)c1cnc(NC(=O)C2CC2)cc1Nc1cccc2c1N(C)Cc1cn(C(C)C)nc1-2 [Compound 37, 6-(cyclopropanecarboxamido)-4-((2-isopropyl-5-methyl-4,5-dihydro-2H-pyrazolo[4,3-c]quinolin-6-yl)amino)-N-(methyl-d3)nicotinamide]
pIC50 [1]: > 7.52
pIC50 [2]: 6.52 to 7.52

[2H]C([2H])([2H])NC(=O)c1nnc(NC(=O)C2CC2)cc1Nc1cccc2c1N(C)Cc1cc(C)nn1-2 [Compound 52, 6-(cyclopropanecarboxamido)-4-((2,5-dimethyl-4,5-dihydropyrazolo[1,5-a]quinoxalin-6-yl)amino)-N-(methyl-d3)pyridazine-3-carboxamide]
pIC50 [1]: > 7.52
pIC50 [2]: > 7.52
pIC50 [3]: < 6.00
pIC50 [4]: 6.00 to 6.52

[2H]C([2H])([2H])NC(=O)c1cnc(NC(=O)C2CC2)cc1Nc1cccc2c1N(C)Cc1cc(C)nn1-2 [Compound 53, 6-(cyclopropanecarboxamido)-4-((2,5-dimethyl-4,5-dihydropyrazolo[1,5-a]quinoxalin-6-yl)amino)-N-(methyl-d3)nicotinamide]
pIC50 [1]: > 7.52
pIC50 [2]: > 7.52
pIC50 [3]: < 6.00
pIC50 [4]: 6.52 to 7.52

[2H]C([2H])([2H])NC(=O)c1nnc(NC(=O)C2CC2)cc1Nc1cccc2c1N(C)Cc1cc(C(F)(F)F)nn1-2 [Compound 54, 6-(cyclopropanecarboxamido)-N-(methyl-d3)-4-((5-methyl-2-(trifluoromethyl)-4,5-dihydropyrazolo[1,5-a]quinoxalin-6-yl)amino)pyridazine-3-carboxamide]
pIC50 [1]: 6.52 to 7.52
pIC50 [2]: 6.00 to 6.52

[2H]C([2H])([2H])NC(=O)c1cnc(NC(=O)C2CC2)cc1Nc1cccc2c1N(C)Cc1cc(C(F)(F)F)nn1-2 [Compound 55, 6-(cyclopropanecarboxamido)-N-(methyl-d3)-4-((5-methyl-2-(trifluoromethyl)-4,5-dihydropyrazolo[1,5-a]quinoxalin-6-yl)amino)nicotinamide]
pIC50 [1]: 6.52 to 7.52
pIC50 [2]: 6.00 to 6.52

[2H]C([2H])([2H])NC(=O)c1nnc(NC(=O)C2CC2)cc1Nc1cccc2c1N(C)C([2H])([2H])c1cc(C)nn1-2 [Compound 56, 6-(cyclopropanecarboxamido)-4-((2,5-dimethyl-4,5-dihydropyrazolo[1,5-a]quinoxalin-6-yl-4,4-d2)amino)-N-(methyl-d3)pyridazine-3-carboxamide]
pIC50 [1]: > 7.52
pIC50 [2]: > 7.52
pIC50 [3]: < 6.00
pIC50 [4]: 6.52 to 7.52

[2H]C([2H])([2H])NC(=O)c1cnc(NC(=O)C2CC2)cc1Nc1cccc2c1N(C)C([2H])([2H])c1cc(C)nn1-2 [Compound 57, 6-(cyclopropanecarboxamido)-4-((2,5-dimethyl-4,5-dihydropyrazolo[1,5-a]quinoxalin-6-yl-4,4-d2)amino)-N-(methyl-d3)nicotinamide]
pIC50 [1]: > 7.52
pIC50 [2]: > 7.52
pIC50 [3]: < 6.00
pIC50 [4]: 6.52 to 7.52

[2H]C([2H])([2H])NC(=O)c1nnc(N(C)C(=O)C2CC2)cc1Nc1nccc2c1N(C)C([2H])([2H])c1cn(C)nc1-2 [Compound 62, 4-((2,5-dimethyl-4,5-dihydro-2H-pyrazolo[4,3-c][1,7]naphthyridin-6-yl-4,4-d2)amino)-N-(methyl-d3)-6-(N-methylcyclopropanecarboxamido)pyridazine-3-carboxamide]
pIC50 [1]: > 7.52
pIC50 [2]: 6.52 to 7.52

[2H]C([2H])([2H])NC(=O)c1nnc(NC(=O)C2CC2)cc1Nc1nccc2c1N(C)C([2H])([2H])c1cn(C)nc1-2 [Compound 72, 6-(cyclopropanecarboxamido)-4-((2,5-dimethyl-4,5-dihydro-2H-pyrazolo[4,3-c][1,7]naphthyridin-6-yl-4,4-d2)amino)-N-(methyl-d3)pyridazine-3-carboxamide]
pIC50 [1]: > 7.52
pIC50 [3]: 6.00 to 6.52

[2H]C([2H])([2H])NC(=O)c1nnc(NC(=O)C2CC2)cc1Nc1nccc2c1N(C)[C@H](C)c1cc(C)nn1-2 [Compound 81, (R)-6-(cyclopropanecarboxamido)-N-(methyl-d3)-4-((2,4,5-trimethyl-4,5-dihydropyrazolo[1,5-a]pyrido[3,4-e]pyrazin-6-yl)amino)pyridazine-3-carboxamide]
pIC50 [1]: > 7.52
pIC50 [2]: > 7.52

[2H]C([2H])([2H])NC(=O)c1nnc(NC(=O)C2CC2)cc1Nc1cccc2c1N(C)Cc1cn(C(C)C)nc1-2 [Compound 91, 6-(cyclopropanecarboxamido)-4-((2-isopropyl-5-methyl-4,5-dihydro-2H-pyrazolo[4,3-c]quinolin-6-yl)amino)-N-(methyl-d3)pyridazine-3-carboxamide]
pIC50 [1]: > 7.52
pIC50 [2]: 6.52 to 7.52
